Reference: PubChem BioAssay (NCI)
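GI50 marks 50% less growth. TGI: total growth inhibition.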

Assays:
Assay in all cases: NCI anticancer screen, dose series, 384-well format
[1] = test system: 786-0 renal
[2] = test system: A498 renal
[3] = test system: A549 NSCLC
[4] = test system: ACHN renal
[5] = test system: BT-549 breast
[6] = test system: CAKI-1 renal
[7] = test system: CCRF-CEM leukemia
[8] = test system: COLO 205 colon
[9] = test system: DU-145 prostate
[10] = test system: EKVX NSCLC
[11] = test system: HCC-2998 colon
[12] = test system: HCT-116 colon
[13] = test system: HCT-15 colon
[14] = test system: HL-60(TB) leukemia
[15] = test system: HOP-62 NSCLC
[16] = test system: HOP-92 NSCLC
[17] = test system: HS 578T breast
[18] = test system: HT29 colon
[19] = test system: IGROV1 ovarian
[20] = test system: K-562 leukemia
[21] = test system: KM12 colon
[22] = test system: LOX IMVI melanoma
[23] = test system: M14 melanoma
[24] = test system: MALME-3M melanoma
[25] = test system: MCF7 breast
[26] = test system: MDA-MB-231 breast
[27] = test system: MDA-MB-435 melanoma
[28] = test system: MDA-MB-468 breast
[29] = test system: MOLT-4 leukemia
[30] = test system: NCI-H226 lung
[31] = test system: NCI-H23 lung
[32] = test system: NCI-H322M lung
[33] = test system: NCI-H460 NSCLC
[34] = test system: NCI-H522 lung
[35] = test system: NCI/ADR-RES ovarian
[36] = test system: OVCAR-3 ovarian
[37] = test system: OVCAR-4 ovarian
[38] = test system: OVCAR-5 ovarian
[39] = test system: OVCAR-8 ovarian
[40] = test system: PC-3 prostate
[41] = test system: RPMI-8226 leukemia
[42] = test system: RXF 393 renal
[43] = test system: SF-268 CNS
[44] = test system: SF-295 CNS
[45] = test system: SF-539 CNS
[46] = test system: SK-MEL-28 melanoma
[47] = test system: SK-MEL-5 melanoma
[48] = test system: SK-OV-3 ovarian
[49] = test system: SN12C renal
[50] = test system: SNB-19 CNS
[51] = test system: SNB-75 CNS
[52] = test system: SW-620 colon
[53] = test system: TK-10 renal
[54] = test system: U251 glioblastoma
[55] = test system: UACC-257 melanoma
[56] = test system: UACC-62 melanoma
[57] = test system: UO-31 renal

COc1ccccc1N1CCN(C(=O)c2ccc(NS(=O)(=O)c3cccc4cccnc34)cc2)CC1 was tested, and the GI50 [1] was 40.8 µM, the TGI [1] was > 100 µM and the GI50 [2] was 71.9 µM. For the same compound, the TGI [2] was > 100 µM, the GI50 [3] was 18.5 µM and the TGI [3] was > 100 µM. The GI50 [4] was > 100 µM, the TGI [4] was > 100 µM and the GI50 [5] was 33 µM. The TGI [5] was > 100 µM, the GI50 [6] was 74.5 µM and the TGI [6] was > 100 µM. It also gave a GI50 [7] of 9.02 µM, a TGI [7] of 23.6 µM and a GI50 [8] of 31.5 µM. For the same compound, the TGI [8] was > 100 µM, the GI50 [9] was > 100 µM and the TGI [9] was > 100 µM. For the same compound, the GI50 [10] was 37.9 µM, the TGI [10] was > 100 µM and the GI50 [11] was 12.7 µM. For the same compound, the TGI [11] was 56.1 µM, the GI50 [12] was 32.8 µM and the TGI [12] was > 100 µM. The GI50 [13] was 28.9 µM, the TGI [13] was > 100 µM and the GI50 [14] was 18.2 µM. For the same compound, the TGI [14] was 33.3 µM, the GI50 [15] was 32.1 µM and the TGI [15] was > 100 µM. For the same compound, the GI50 [16] was > 100 µM, the TGI [16] was > 100 µM and the GI50 [17] was 25.9 µM. The TGI [17] was > 100 µM, the GI50 [18] was > 100 µM and the TGI [18] was > 100 µM. For the same compound, the GI50 [19] was > 100 µM, the TGI [19] was > 100 µM and the GI50 [20] was 10 µM. For the same compound, the TGI [20] was 34.6 µM, the GI50 [21] was > 100 µM and the TGI [21] was > 100 µM. The GI50 [22] was > 100 µM, the TGI [22] was > 100 µM and the GI50 [23] was 26.9 µM. For the same compound, the TGI [23] was 84.9 µM, the GI50 [24] was > 100 µM and the TGI [24] was > 100 µM. For the same compound, the GI50 [25] was 24.5 µM, the TGI [25] was > 100 µM and the GI50 [26] was 63.5 µM. The TGI [26] was > 100 µM, the GI50 [27] was 20.4 µM and the TGI [27] was 42.9 µM. It also gave a GI50 [28] of 4.03 µM, a TGI [28] of 17.6 µM and a GI50 [29] of 4.05 µM. For the same compound, the TGI [29] was > 100 µM, the GI50 [30] was 8.48 µM and the TGI [30] was > 100 µM. The GI50 [31] was > 100 µM, the TGI [31] was > 100 µM and the GI50 [32] was 53.4 µM. For the same compound, the TGI [32] was > 100 µM, the GI50 [33] was 14.1 µM and the TGI [33] was 31 µM. The GI50 [34] was 16.8 µM, the TGI [34] was 34.2 µM and the GI50 [35] was > 100 µM. For the same compound, the TGI [35] was > 100 µM, the GI50 [36] was 24.9 µM and the TGI [36] was 81.4 µM. The GI50 [37] was > 100 µM, the TGI [37] was > 100 µM and the GI50 [38] was > 100 µM. For the same compound, the TGI [38] was > 100 µM, the GI50 [39] was 28.1 µM and the TGI [39] was > 100 µM. The GI50 [40] was 56 µM, the TGI [40] was > 100 µM and the GI50 [41] was 10.2 µM. It also gave a TGI [41] of 23.6 µM, a GI50 [42] of 18.2 µM and a TGI [42] of 80.9 µM. For the same compound, the GI50 [43] was 13.7 µM, the TGI [43] was 47.4 µM and the GI50 [44] was > 100 µM. The TGI [44] was > 100 µM, the GI50 [45] was 32 µM and the TGI [45] was > 100 µM. The GI50 [46] was > 100 µM, the TGI [46] was > 100 µM and the GI50 [47] was 7.09 µM. The TGI [47] was > 100 µM, the GI50 [48] was 38.9 µM and the TGI [48] was > 100 µM. The GI50 [49] was 61.3 µM, the TGI [49] was > 100 µM and the GI50 [50] was 52.1 µM. The TGI [50] was > 100 µM, the GI50 [51] was > 100 µM and the TGI [51] was > 100 µM. For the same compound, the GI50 [52] was 44.8 µM, the TGI [52] was > 100 µM and the GI50 [53] was > 100 µM. The TGI [53] was > 100 µM, the GI50 [54] was 40.7 µM and the TGI [54] was > 100 µM. The GI50 [55] was > 100 µM, the TGI [55] was > 100 µM and the GI50 [56] was 58.6 µM. For the same compound, the TGI [56] was > 100 µM, the GI50 [57] was > 100 µM and the TGI [57] was > 100 µM.
